# From patent US8952024B2, “Herbicidal pyrimidone derivatives” (E I du Pont de Nemours and Company, priority 2009, dated 2015)
# Read-outs that look alike come from different tables or passages of the source.
# Legend:
# Assay type in all cases: in vivo
# [1] = test system: windgrass (Apera spica-venti); assay: Test B postemergence plant response
# Method in brief: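 Plants at the 1- to 4-leaf stage (2 to 18 cm tall), grown in pots of peat moss/vermiculite medium with wetting agent and starter nutrients, received postemergence applications of test chemicals. After 13 to 15 days in a greenhouse, injury was rated visually against untreated controls on a 0 (no effect) to 100 (complete control) scale.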
# corn (Zea mays) = assay: Test A pre-/postemergence plant response; settings: Zea mays, 240 h; for Corn plant response rating (crop injury, 0 = no effect, 100 = complete kill) at 125 g/ha: 125 g ai/ha; for Corn plant response rating (crop injury, 0 = no effect, 100 = complete kill) at 500 g/ha: 500 g ai/ha, approx. ten days
# Method in brief: (§1)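 Visually rated 0–100 injury (100 = complete control) versus untreated plants, ~10 days in greenhouse. Application pre- (soil spray, loam/sand) and postemergence (2–10 cm, 1–2 leaf stage), same timepoint.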
# [2] = test system: velvetleaf (Abutilon theophrasti); assay: Test A pre-/postemergence plant response; settings: Abutilon theophrasti, 240 h, read-out: Plant response rating, Velvetleaf; for pest or weed control at 125 g/ha: 125 g ai/ha; for pest or weed control at 500 g/ha: 500 g ai/ha, approx. ten days
# Method in brief: as §1
# [3] = test system: wheat (Triticum aestivum); assay: Test A pre-/postemergence plant response; settings: Triticum aestivum, 240 h, read-out: Plant response rating, Wheat; for plant injury at 125 g/ha: 125 g ai/ha; for plant injury at 500 g/ha: 500 g ai/ha, approx. ten days
# Method in brief: as §1
# [4] = test system: giant foxtail (Setaria faberii); assay: Test A pre-/postemergence plant response; settings: Setaria faberi, 240 h, read-out: Plant response rating, Foxtail, Giant; for pest or weed control at 125 g/ha: 125 g ai/ha; for pest or weed control at 500 g/ha: 500 g ai/ha, approx. ten days
# Method in brief: as §1
# [5] = test system: barnyardgrass (Echinochloa crus-galli); assay: Test A pre-/postemergence plant response; settings: Echinochloa crus-galli, 240 h, read-out: Plant response rating, Barnyardgrass; for pest or weed control at 125 g/ha: 125 g ai/ha; for pest or weed control at 500 g/ha: 500 g ai/ha, approx. ten days
# Method in brief: as §1
# [6] = test system: morningglory (Ipomoea spp.); assay: Test A pre-/postemergence plant response; settings: Ipomoea, 240 h, read-out: Plant response rating, Morningglory; for pest or weed control at 125 g/ha: 125 g ai/ha; for pest or weed control at 500 g/ha: 500 g ai/ha, approx. ten days
# Method in brief: as §1
# [7] = test system: pigweed (Amaranthus retroflexus); assay: Test A pre-/postemergence plant response; settings: Amaranthus retroflexus, 240 h, read-out: Plant response rating, Pigweed; for pest or weed control at 125 g/ha: 125 g ai/ha; for pest or weed control at 500 g/ha: 500 g ai/ha, approx. ten days
# Method in brief: as §1
# [8] = test system: large crabgrass (Digitaria sanguinalis); assay: Test A pre-/postemergence plant response; settings: Digitaria sanguinalis, 240 h, read-out: Plant response rating, Crabgrass, Large; for pest or weed control at 125 g/ha: 125 g ai/ha; for pest or weed control at 500 g/ha: 500 g ai/ha, approx. ten days
# Method in brief: as §1
# rice (Oryza sativa) = assay: Test B flooded paddy test
# Method in brief: (§2)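 2-leaf seedlings; pots flooded 3 cm over soil at treatment; cpd dosed into floodwater, depth kept constant. Greenhouse 13–15 d. Visual rating vs untreated controls, 0 = no effect, 100 = complete control.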
# [9] = test system: umbrella sedge (Cyperus difformis); assay: Test B flooded paddy test
# Method in brief: as §2
# [10] = test system: ducksalad (Heteranthera limosa); assay: Test B flooded paddy test
# Method in brief: as §2
# [11] = test system: barnyardgrass (Echinochloa crus-galli); assay: Test B flooded paddy test
# Method in brief: as §2
# [12] = post-emergence, Postemergence, 0 to 100 scale where 0 is no effect and 100 is complete control
# [13] = post-emergence, Postemergence, 0 to 100 scale, 0 = no effect, 100 = complete control
# [14] = pre-emergence, Preemergence, 0 to 100 scale, 0 = no effect, 100 = complete control
# [15] = pre-emergence, Preemergence, visual injury, 0 to 100 scale (0 no effect, 100 complete control)
# [16] = Flood, 31 g ai/ha, scale 0 to 100 (0 no effect, 100 complete control)
smiles,measurement,setting,value
"COCCCn1c(-c2ccccc2)ncc(C(=O)C2=C(O)CCCC2=O)c1=O [Compound 81, 5-[(2-hydroxy-6-oxo-cyclohexen-1-yl)carbonyl]-3-(3-methoxypropyl)-2-phenyl-4(3H)-pyrimidinone]",Windgrass plant response rating (0 to 100 scale),"[1]; 62 g ai/ha, postemergence, 0 is no effect, 100 is complete control, 13 to 15 days",50
same,pest or weed control at 31 g/ha,"[1]; Apera spica-venti, post-emergence, 360 h, 31 g ai/ha, postemergence, scale 0 to 100, 0 is no effect, 100 is complete control, read-out: Plant response rating, Windgrass",10%
same,pest or weed control at 125 g/ha,"[1]; Apera spica-venti, post-emergence, 360 h, Postemergence, 125 g ai/ha, visual rating after 13 to 15 days, scale 0 (no effect) to 100 (complete control)",60%
same,pest or weed control at 250 g/ha,"[1]; Apera spica-venti, post-emergence, 360 h, Postemergence, 250 g ai/ha, scale 0 to 100 (0 no effect, 100 complete control), read-out: Plant response rating, Windgrass",70%
same,"Corn plant response rating (crop injury, 0 = no effect, 100 = complete kill) at 125 g/ha",corn (Zea mays); [12],10%
same,"Corn plant response rating (crop injury, 0 = no effect, 100 = complete kill) at 500 g/ha",corn (Zea mays); [13],70%
same,"Corn plant response rating (crop injury, 0 = no effect, 100 = complete kill) at 125 g/ha",corn (Zea mays); [14],0%
same,"Corn plant response rating (crop injury, 0 = no effect, 100 = complete kill) at 500 g/ha",corn (Zea mays); [15],0%
same,pest or weed control at 125 g/ha,[2]; [12],100%
same,pest or weed control at 500 g/ha,[2]; [13],100%
same,pest or weed control at 125 g/ha,[2]; [14],100%
same,pest or weed control at 500 g/ha,[2]; [15],100%
same,plant injury at 125 g/ha,[3]; [12],0%
same,plant injury at 500 g/ha,[3]; [13],30%
same,plant injury at 125 g/ha,[3]; [14],0%
same,plant injury at 500 g/ha,[3]; [15],20%
same,pest or weed control at 125 g/ha,[4]; [12],80%
same,pest or weed control at 500 g/ha,[4]; [13],90%
same,pest or weed control at 125 g/ha,[4]; [14],30%
same,pest or weed control at 500 g/ha,[4]; [15],80%
same,pest or weed control at 125 g/ha,[5]; [12],100%
same,pest or weed control at 500 g/ha,[5]; [13],100%
same,pest or weed control at 125 g/ha,[5]; [14],50%
same,pest or weed control at 500 g/ha,[5]; [15],90%
same,pest or weed control at 125 g/ha,[6]; [12],90%
same,pest or weed control at 500 g/ha,[6]; [13],100%
same,pest or weed control at 125 g/ha,[6]; [14],0%
same,pest or weed control at 500 g/ha,[6]; [15],70%
same,pest or weed control at 125 g/ha,[7]; [12],100%
same,pest or weed control at 500 g/ha,[7]; [13],100%
same,pest or weed control at 125 g/ha,[7]; [14],100%
same,pest or weed control at 500 g/ha,[7]; [15],100%
same,pest or weed control at 125 g/ha,[8]; [12],90%
same,pest or weed control at 500 g/ha,[8]; [13],90%
same,pest or weed control at 125 g/ha,[8]; [14],90%
same,pest or weed control at 500 g/ha,[8]; [15],100%
same,Rice plant response rating,rice (Oryza sativa); [16],0
same,plant injury at 250 g/ha,"rice (Oryza sativa); Oryza sativa, 250 g ai/ha, flooded paddy test, visual rating on 0 to 100 scale (0 no effect, 100 complete control) after 13 to 15 days, read-out: Plant response rating, Flood, Rice",15%
same,plant injury at 62 g/ha,"rice (Oryza sativa); Oryza sativa, Flood (flooded paddy test), 62 g ai/ha, scale of 0 to 100 where 0 is no effect and 100 is complete control, 13 to 15 days, read-out: Plant response rating, Rice",0%
same,plant injury at 125 g/ha,"rice (Oryza sativa); Oryza sativa, Flood (flooded paddy test), 125 g ai/ha, scale 0 to 100, 0 is no effect, 100 is complete control, 13 to 15 days, read-out: Plant response rating, Rice",15%
same,pest or weed control at 250 g/ha,"[9]; Cyperus difformis, 360 h, 250 g ai/ha, flooded paddy test, visual rating on 0 to 100 scale (0 no effect, 100 complete control) after 13 to 15 days, read-out: Plant response rating, Flood, Sedge, Umbrella",40%
same,pest or weed control at 62 g/ha,"[9]; Cyperus difformis, 360 h, Flood (flooded paddy test), 62 g ai/ha, scale of 0 to 100 where 0 is no effect and 100 is complete control, 13 to 15 days, read-out: Plant response rating, Sedge, Umbrella",0%
same,pest or weed control at 125 g/ha,"[9]; Cyperus difformis, 360 h, Flood (flooded paddy test), 125 g ai/ha, scale 0 to 100, 0 is no effect, 100 is complete control, 13 to 15 days, read-out: Plant response rating, Sedge, Umbrella",30%
same,"Sedge, Umbrella plant response rating",[9]; [16],0
same,Ducksalad plant response rating,[10]; [16],0
same,pest or weed control at 250 g/ha,"[10]; Heteranthera limosa, 360 h, 250 g ai/ha, flooded paddy test, visual rating on 0 to 100 scale (0 no effect, 100 complete control) after 13 to 15 days, read-out: Plant response rating, Flood, Ducksalad",40%
same,pest or weed control at 62 g/ha,"[10]; Heteranthera limosa, 360 h, Flood (flooded paddy test), 62 g ai/ha, scale of 0 to 100 where 0 is no effect and 100 is complete control, 13 to 15 days, read-out: Plant response rating, Ducksalad",0%
same,pest or weed control at 125 g/ha,"[10]; Heteranthera limosa, 360 h, Flood (flooded paddy test), 125 g ai/ha, scale 0 to 100, 0 is no effect, 100 is complete control, 13 to 15 days, read-out: Plant response rating, Ducksalad",15%
same,pest or weed control at 250 g/ha,"[11]; Echinochloa crus-galli, 360 h, 250 g ai/ha, flooded paddy test, visual rating on 0 to 100 scale (0 no effect, 100 complete control) after 13 to 15 days, read-out: Plant response rating, Flood, Barnyardgrass",60%
same,pest or weed control at 62 g/ha,"[11]; Echinochloa crus-galli, 360 h, Flood (flooded paddy test), 62 g ai/ha, scale of 0 to 100 where 0 is no effect and 100 is complete control, 13 to 15 days, read-out: Plant response rating, Barnyardgrass",0%
same,pest or weed control at 125 g/ha,"[11]; Echinochloa crus-galli, 360 h, Flood (flooded paddy test), 125 g ai/ha, scale 0 to 100, 0 is no effect, 100 is complete control, 13 to 15 days, read-out: Plant response rating, Barnyardgrass",40%
same,Barnyardgrass plant response rating,[11]; [16],0
